Data reported in article PMC12169614, “Exploring Long Arm Amide-Linked Side Chains in the Design of Antifungal Azole Inhibitors of Sterol 14α-Demethylase (CYP51)” (Journal of Medicinal Chemistry, 2025).

Tests used:
Y2301 OE ScCYP51 Y140F = assay: MIC80 determination, strain Y2301; format: cell-based, S. cerevisiae; settings: Saccharomyces cerevisiae; for MIC80: 48 h, pH 6.8; for MIC: read-out: MIC (nM) S. cerevisiae Y2301
Procedure: (§1) Cells were seeded at an OD600 nm of 0.005 (1.5 × 10^4 CFU), and the plates were incubated at 30 °C with shaking at 200 rpm for 48 h for S. cerevisiae strains and 24 h for C. albicans . Cell growth was assessed by measuring the OD600 nm using a Synergy 2 multimode plate reader (BioTek Instruments, VT, USA). Each MIC80 was determined using triplicate measurements for pools of 4 clones of each strain in three separate experiments.

Y2513 OE ScCYP51 Y140H = assay: MIC80 determination, strain Y2513; format: cell-based, S. cerevisiae; settings: Saccharomyces cerevisiae; for MIC80: 48 h, pH 6.8; for MIC: read-out: MIC (nM) S. cerevisiae Y2513
Procedure: as §1

Y2716 OE CpCYP51 Y132F = assay: MIC80 determination, strain Y2716; format: cell-based, S. cerevisiae; settings: for increase in resistance owing to the CpCYP51 Y132F mutation: MIC80 Y2716 versus Y2721; for MIC80: Saccharomyces cerevisiae
Procedure: as §1

[1] = tested on: Y2747 OE AfCYP51B AfCPR AfERG6; assay: MIC80 determination, strain Y2747; format: cell-based, S. cerevisiae; settings: for MIC: Aspergillus fumigatus, read-out: MIC (nM) A. fumigatus model Y2747; for MIC80: Saccharomyces cerevisiae
Procedure: as §1

Y525 OE CaMDR1a = assay: MIC80 determination, strain Y525; format: cell-based, S. cerevisiae; settings: for MIC80: Saccharomyces cerevisiae, 48 h, pH 6.8; for MIC: read-out: MIC (nM) C. albicans model Y525
Procedure: as §1

Y1 = assay: MIC80 determination, C. albicans clinical isolate Y1; format: cell-based; settings: Candida albicans, pH 7, 24 h
Procedure: as §1

Y2300 OE ScCYP51 = assay: MIC80 determination, strain Y2300; format: cell-based, S. cerevisiae; settings: Saccharomyces cerevisiae; for MIC80: 48 h, pH 6.8; for MIC: read-out: MIC (nM) S. cerevisiae Y2300
Procedure: as §1

Y433 OE CgCDR1 = assay: MIC80 determination, strain Y433; format: cell-based, S. cerevisiae; settings: Saccharomyces cerevisiae
Procedure: as §1

Y2651 OE CYP51 F5 RaCPR = assay: MIC80 determination, strain Y2651; format: cell-based, S. cerevisiae; settings: Saccharomyces cerevisiae
Procedure: as §1

Y2411 Endog. ScCYP51 = assay: MIC80 determination, strain Y2411; format: cell-based, S. cerevisiae; settings: Saccharomyces cerevisiae; for MIC80: strain Y2411 Endog. ScCYP51, SD pH 6.8, 30 °C, 48 h; for MIC: supplement csv, read-out: MIC (nM) S. cerevisiae Y2411
Procedure: as §1

[2] = tested on: Y2301 ScCYP51 Y140F mutant; assay: Agarose (disk) diffusion assay, strain Y2301; format: cell-based, S. cerevisiae; settings: 10 nmol/disk, 30 °C, 48 h
Excerpt: (§2) Final compounds were screened as racemic mixtures using agarose diffusion assays to visualize their inhibitory activity against a panel of recombinant S. cerevisiae strains i.e., S. cerevisiae strains expressing control levels of wild-type CYP51 (ScCYP51), overexpressed wild-type ScCYP51, overexpressed azole-resistant ScCYP51 Y140F/H mutations and overexpressed C. albicans efflux pumps MDR1a or CDR1B (Figure and Table S1).
(§3) The susceptibilities of S. cerevisiae and Candida species strains to azole compounds were observed as zones of growth inhibition in agarose diffusion assays. The disk diffusion assays were carried out as described by Keniya et al. Complete supplement mixture (CSM) agarose (0.6% agarose [wt/vol]; 20 mL of synthetic defined medium (SD); pH 6.8–7) was solidified in a rectangular Petri dish which was overlaid with CSM agarose (0.6% [wt/vol]; 5 mL; pH 6.8–7) seeded with yeast cells at an optical density (OD600) of 0.008 (118,000 cells per 1 mL of overlay). Azole compounds (10 nmol/disk) were applied to sterile BBL paper disks (Becton Dickinson Co., Sparks, MD) and placed on solidified overlays. Cell growth was assessed after incubation at 30 °C for 48 h.

Y570 OE CaCDR1B = assay: MIC80 determination, strain Y570; format: cell-based, S. cerevisiae; settings: for MIC: Candida albicans, read-out: MIC (nM) C. albicans model Y570; for MIC80: Saccharomyces cerevisiae, 48 h, pH 6.8
Procedure: as §1

Y611 FHB3 = assay: MIC80 determination, C. albicans clinical isolate Y611 FHB3; format: cell-based; settings: Candida albicans, 24 h, pH 7
Procedure: as §1

Y2721 OE CpCYP51 = assay: MIC80 determination, strain Y2721; format: cell-based, S. cerevisiae; settings: for MIC80: Saccharomyces cerevisiae; for MIC: read-out: MIC (nM) C. parapsilosis model Y2721
Procedure: as §1

[3] = tested on: Y2746 OE AfCYP51A AfCPR AfERG6; assay: MIC80 determination, strain Y2746; format: cell-based, S. cerevisiae; settings: Saccharomyces cerevisiae
Procedure: as §1

Y2459 OE CaCYP51 CaCpr = assay: MIC80 determination, strain Y2459; format: cell-based, S. cerevisiae; settings: for MIC80: Saccharomyces cerevisiae, 48 h, pH 6.8; for MIC: read-out: MIC (nM) C. albicans model Y2459
Procedure: as §1

Y71 SC5314 = assay: MIC80 determination, C. albicans clinical isolate Y71 SC5314; format: cell-based; settings: Candida albicans; for MIC: SC5314, supplement csv; for MIC80: C. albicans clinical isolate Y71 SC5314, pH 7, 24 h
Procedure: as §1

Y2374 OE CgCYP51 = assay: MIC80 determination, strain Y2374; format: cell-based, S. cerevisiae; settings: Saccharomyces cerevisiae; for MIC: read-out: MIC (nM) C. glabrate model Y2374
Procedure: as §1

2711 CnCYP51 OE CnCPR = assay: MIC80 determination, strain 2711; format: cell-based, S. cerevisiae; settings: for MIC80: Saccharomyces cerevisiae; for MIC: read-out: MIC (nM) C. neoformans model Y2711
Procedure: as §1

Y610 FHB1 = assay: MIC80 determination, C. albicans clinical isolate Y610 FHB1; format: cell-based; settings: Candida albicans; C. albicans clinical isolate Y610 FHB1 (weakly expresses CaCDR1); pH 7, 24 h
Procedure: as §1

Y2649 OE CYP51 F1 RaCPR = assay: MIC80 determination, strain Y2649; format: cell-based, S. cerevisiae; settings: for MIC: Rhizopus arrhizus, read-out: MIC (nM) R. arrhizus model Y2649; for MIC80: Saccharomyces cerevisiae
Procedure: as §1

[4] = tested on: Y2513 ScCYP51 Y140H mutant; assay: Agarose (disk) diffusion assay, strain Y2513; format: cell-based, S. cerevisiae; settings: 10 nmol/disk, 30 °C, 48 h
Excerpt: as §2, §3

[5] = tested on: Y2300 ScCYP51 overexpressed; assay: Agarose (disk) diffusion assay, strain Y2300; format: cell-based, S. cerevisiae; settings: 10 nmol/disk, 30 °C, 48 h
Excerpt: as §2, §3

[6] = tested on: Y525 MFS efflux pump CaMDR1a overexpressed; assay: Agarose (disk) diffusion assay, strain Y525; format: cell-based, S. cerevisiae; settings: 10 nmol/disk, 30 °C, 48 h
Excerpt: as §2, §3

| SMILES | MIC80 (Y2301 OE ScCYP51 Y140F) [µM] | MIC (Y2301 OE ScCYP51 Y140F) [nM] | MIC80 (Y2513 OE ScCYP51 Y140H) [µM] | MIC (Y2513 OE ScCYP51 Y140H) [nM] | increase in resistance owing to the CpCYP51 Y132F mutation (Y2716 OE CpCYP51 Y132F) [fold] | MIC80 (Y2716 OE CpCYP51 Y132F) [µM] | MIC [1] [nM] | MIC80 [1] [µM] | MIC80 (Y525 OE CaMDR1a) [µM] | MIC (Y525 OE CaMDR1a) [nM] | MIC80 (Y1) [µM] | MIC80 (Y2300 OE ScCYP51) [µM] | MIC (Y2300 OE ScCYP51) [nM] | MIC80 (Y433 OE CgCDR1) [µM] | MIC80 (Y2651 OE CYP51 F5 RaCPR) [µM] | MIC80 (Y2411 Endog. ScCYP51) [µM] | MIC (Y2411 Endog. ScCYP51) [nM] | zone of growth inhibition (inhibitory activity in words) [2] | MIC (Y570 OE CaCDR1B) [nM] | zone of growth inhibition (inhibitory activity in words) [4] | also measured |
| --- | --- | --- | --- | --- | --- | --- | --- | --- | --- | --- | --- | --- | --- | --- | --- | --- | --- | --- | --- | --- | --- |
| O=C(NCC(O)(Cn1cncn1)c1ccc(F)cc1F)c1cccc(-c2ccc(C(F)(F)F)cc2)c1 (stereo not drawn) [Compound 23, N-(2-(2,4-Difluorophenyl)-2-hydroxy-3-(1H-1,2,4-triazol-1-yl)propyl)-4’-(trifluoromethyl)-[1,1’-biphenyl]-3-carboxamide] | 0.411 ± 0.071 | 411 ± 71 | 0.805 ± 0.121 | 805 ± 121 | > 19 | 1.91 ± 0.02 | 150 ± 26 | 0.15 ± 0.026 | 0.44 | 440 | 0.12 | 0.069 ± 0.039 | 69 ± 39 | 13.1 | 2.57 ± 0.938 | 0.037 ± 0.011 | 37 ± 11 | significantly greater resistance | 8100 | significantly greater resistance | MIC80 (Y570 OE CaCDR1B): 8.1 µM; MIC80 (Y611 FHB3): 4.25 µM; MIC80 (Y2721 OE CpCYP51): 0.055 ± 0.003 µM; MIC (Y2721 OE CpCYP51): 55 ± 3 nM; MIC80 [3]: 3.52 ± 0.209 µM; MIC80 (Y2459 OE CaCYP51 CaCpr): 0.06 ± 0.011 µM; MIC (Y2459 OE CaCYP51 CaCpr): 60 ± 11 nM; MIC (Y71 SC5314): 100 nM; MIC80 (Y71 SC5314): 0.1 µM; MIC80 (Y2374 OE CgCYP51): 0.076 ± 0.012 µM; MIC (Y2374 OE CgCYP51): 76 ± 12 nM; MIC80 (2711 CnCYP51 OE CnCPR): 0.02 µM; MIC (2711 CnCYP51 OE CnCPR): 20 nM; MIC80 (Y610 FHB1): 0.4 ± 0.113 µM; MIC (Y2649 OE CYP51 F1 RaCPR): 32 ± 19 nM; MIC80 (Y2649 OE CYP51 F1 RaCPR): 0.032 ± 0.019 µM |
| O=C(Nc1ccc(CNC(=O)C(Cn2cncn2)c2ccc(F)cc2F)cc1)c1cnccn1 (stereo not drawn) [Compound 48, N-(4-((2-(2,4-Difluorophenyl)-3-(1H-1,2,4-triazol-1-yl)propanamido)methyl)phenyl)pyrazine-2-carboxamide] | – | – | – | – | – | – | – | – | – | – | – | – | – | – | – | – | – | – | – | – | zone of growth inhibition (inhibitory activity in words) [5]: lower inhibitory activity |
| O=C(NCC(O)(Cn1cncn1)c1ccc(F)cc1F)c1cccc(-c2ccc(OC(F)(F)F)cc2)c1 (stereo not drawn) [Compound 24, N-(2-(2,4-Difluorophenyl)-2-hydroxy-3-(1H-1,2,4-triazol-1-yl)propyl)-4’-(trifluoromethoxy)-[1,1’-biphenyl]-3-carboxamide] | 0.419 ± 0.083 | 419 ± 83 | 0.719 ± 0.001 | 719 ± 1 | > 19 | 1.75 | 50 | 0.05 | 0.43 | 430 | 0.12 | 0.163 ± 0.061 | 163 ± 61 | 11.8 | 1.4 | 0.03 | 30 | significantly greater resistance | 17000 | significantly greater resistance | MIC80 (Y570 OE CaCDR1B): 17 µM; MIC80 (Y611 FHB3): 3.4 µM; MIC80 (Y2721 OE CpCYP51): 0.094 µM; MIC (Y2721 OE CpCYP51): 94 nM; MIC80 [3]: 2.7 µM; MIC80 (Y2459 OE CaCYP51 CaCpr): 0.116 ± 0.061 µM; MIC (Y2459 OE CaCYP51 CaCpr): 116 ± 61 nM; MIC (Y71 SC5314): 85 nM; MIC80 (Y71 SC5314): 0.085 µM; MIC80 (Y2374 OE CgCYP51): 0.168 µM; MIC (Y2374 OE CgCYP51): 168 nM; MIC80 (2711 CnCYP51 OE CnCPR): 0.002 µM; MIC (2711 CnCYP51 OE CnCPR): 2 nM; MIC80 (Y610 FHB1): 0.37 ± 0.042 µM; MIC (Y2649 OE CYP51 F1 RaCPR): 16 nM; MIC80 (Y2649 OE CYP51 F1 RaCPR): 0.016 µM |
| O=C(NCC(O)(Cn1cncn1)c1ccc(F)cc1F)c1cnc2ccccc2c1 (stereo not drawn) [Compound 15, N-(2-(2,4-Difluorophenyl)-2-hydroxy-3-(1H-1,2,4-triazol-1-yl)propyl)quinoline-3-carboxamide] | – | – | – | – | – | – | – | – | – | – | – | – | – | – | – | – | – | showed activity | – | showed activity | – |
| O=C(NCc1ccc(-c2ccc(OC(F)(F)F)cc2)cc1)C(Cn1cncn1)c1ccc(F)cc1F (stereo not drawn) [Compound 40] | – | – | – | – | – | – | – | – | – | – | – | – | – | – | – | – | – | low inhibitory activity | – | low inhibitory activity | zone of growth inhibition (inhibitory activity in words) [6]: low inhibitory activity |
